Test results from ChEMBL document CHEMBL4480413, “Cytotoxic Withanolides from the Roots of Indian Ginseng ( Withania somnifera)” (J Nat Prod, 2019).

Columns and labels:
Format in all cases: functional, cell-based
A549 = assay: Cytotoxicity against human A549 cells after 72 hrs by SRB assay
SK-OV-3 = assay: Cytotoxicity against human SKOV3 cells after 72 hrs by SRB assay
HCT-15 = assay: Cytotoxicity against human HCT15 cells after 72 hrs by SRB assay
SK-MEL-2 = assay: Cytotoxicity against human SK-MEL-2 cells after 72 hrs by SRB assay
[1] = Homo sapiens, A549, 72 h, read-out: IC50
[2] = Homo sapiens, SK-OV-3, 72 h, read-out: IC50
[3] = Homo sapiens, HCT-15, 72 h, read-out: IC50
[4] = Homo sapiens, SK-MEL-2, 72 h, read-out: IC50

Row | Structure (SMILES) | IC50 (A549; a549) | IC50 (SK-OV-3; sk-ov-3) | IC50 (HCT-15; hct-15) | IC50 (SK-MEL-2; sk-mel-2) | IC50 (A549; [1]) [µM] | IC50 (SK-OV-3; [2]) [µM] | IC50 (HCT-15; [3]) [µM] | IC50 (SK-MEL-2; [4]) [µM]
1 | CC1=C(CO)C(=O)O[C@@H](/C(C)=C2\[C@H](O)C[C@H]3[C@@H]4[C@@H]5O[C@@H]5[C@@]5(O)CC=CC(=O)[C@]5(C)[C@H]4CC[C@]23C)C1 | Not Active | Not Active | Not Active | Not Active | – | – | – | –
2 | CC1=C(CO)C(=O)O[C@@H]([C@@H](C)[C@@]2(O)CC[C@H]3[C@@H]4[C@@H]5O[C@@H]5[C@@]5(O)CC=CC(=O)[C@]5(C)[C@H]4CC[C@@]32C)C1 | Not Active | Not Active | Not Active | Not Active | – | – | – | –
3 | CC1=C(C)C(=O)O[C@@H]([C@](C)(O)[C@@]2(O)CC[C@H]3[C@@H]4[C@@H]5O[C@@H]5[C@@]5(O)CC=CC(=O)[C@]5(C)[C@H]4CC[C@@]32C)C1 | Not Active | Not Active | Not Active | Not Active | – | – | – | –
4 | CC(=O)O[C@@H]1C[C@H]2[C@@H]3[C@@H]4O[C@@H]4[C@@]4(O)CC=CC(=O)[C@]4(C)[C@H]3CC[C@]2(C)/C1=C(\C)[C@H]1CC(C)=C(CO)C(=O)O1 | – | – | – | – | > 10 | > 10 | 7.6 | 10
5 | CC1=C(C)[C@H](O)[C@H]([C@](C)(O)[C@H]2CC[C@H]3[C@@H]4[C@@H]5O[C@@H]5[C@@]5(O)CC=CC(=O)[C@]5(C)[C@H]4CC[C@]23C)OC1=O | – | – | – | – | > 10 | > 10 | 9.8 | 9.2
6 | C[C@H]([C@H]1C[C@H](C)[C@@H](C)C(=O)O1)[C@@]1(O)CC[C@H]2[C@@H]3[C@@H]4O[C@@H]4[C@@]4(O)CC=CC(=O)[C@]4(C)[C@H]3CC[C@@]21C | Not Active | Not Active | Not Active | Not Active | – | – | – | –
7 | C[C@H]1C[C@H]([C@](C)(O)[C@H]2CC[C@H]3[C@@H]4[C@H](O)C=C5CC=CC(=O)[C@]5(C)[C@H]4CC[C@]23C)OC(=O)[C@@H]1C | – | – | – | – | > 10 | 8.8 | 5.7 | 5.9
8 | C[C@H]1C[C@H]([C@](C)(O)[C@H]2CC[C@H]3[C@@H]4[C@@H]5O[C@@H]5[C@@]5(O)CC=CC(=O)[C@]5(C)[C@H]4CC[C@]23C)OC(=O)[C@@H]1C | Not Active | Not Active | Not Active | Not Active | – | – | – | –
9 | CC1=C(CO)C(=O)O[C@@H]([C@](C)(O)[C@H]2CC[C@H]3[C@@H]4[C@@H]5O[C@@H]5[C@@]5(O)CC=CC(=O)[C@]5(C)[C@H]4CC[C@]23C)C1 | Not Active | Not Active | Not Active | Not Active | – | – | – | –
10 | CC1=C(C)C(=O)O[C@@H]([C@](C)(O)[C@H]2CC[C@H]3[C@@H]4[C@H](O)C=C5CC=CC(=O)[C@]5(C)[C@H]4CC[C@]23C)C1 | – | – | – | – | > 10 | 7.9 | 5.1 | 3.4
11 | CC1=C(C)C(=O)O[C@@H]([C@@H](C)[C@]2(O)CC[C@H]3[C@@H]4[C@@H]5O[C@@H]5[C@@]5(O)CC=CC(=O)[C@]5(C)[C@H]4CC[C@@]32C)C1 | Not Active | Not Active | Not Active | Not Active | – | – | – | –
12 | COc1cc([C@@H]2c3cc4c(cc3[C@@H](O[C@@H]3O[C@@H]5CO[C@@H](C)O[C@H]5[C@H](O)[C@H]3O)[C@H]3COC(=O)[C@H]23)OCO4)cc(OC)c1O [ETOPOSIDE] | – | – | – | – | 0.71 | 1.83 | 0.46 | 0.79
13 | CC1=C(C)C(=O)O[C@@H]([C@](C)(O)[C@H]2CC[C@H]3[C@@H]4[C@@H]5O[C@@H]5[C@@]5(O)CC=CC(=O)[C@]5(C)[C@H]4CC[C@]23C)C1 [WITHANOLIDE A] | Not Active | Not Active | Not Active | Not Active | – | – | – | –
14 | CC1=C(C)C(=O)O[C@@H]([C@@H](C)[C@@]2(O)CC[C@H]3[C@@H]4[C@@H]5O[C@@H]5[C@@]5(O)CC=CC(=O)[C@]5(C)[C@H]4CC[C@@]32C)C1 [WITHANONE] | – | – | – | – | > 10 | > 10 | 5.9 | 6.1
